{
  "source": "ChEMBL document CHEMBL5512613",
  "about": "“Design and synthesis of novel 3-amino-5-phenylpyrazole derivatives as tubulin polymerization inhibitors targeting the colchicine-binding site” (Eur J Med Chem, 2024)",
  "key": {"MCF7 [1]": {"test_system": "MCF7", "test": "Induction of cell cycle arrest in human MCF7 cells assessed as proportion of cells at S phase at 12.5 nM incubated for 24 hrs by PI staining based flow cytometry (reference value: 21.1%)", "type": "functional"}, "MCF7 [2]": {"test_system": "MCF7", "test": "Induction of cell cycle arrest in human MCF7 cells assessed as proportion of cells at S phase at 25 nM incubated for 6 hrs by PI staining based flow cytometry (reference value: 21.1%)", "type": "functional"}, "MCF7 [3]": {"test_system": "MCF7", "test": "Induction of cell cycle arrest in human MCF7 cells assessed as increase in p21 protein expression at 6.25 to 50 nM incubated for 24 hrs by western blot analysis", "type": "functional, cell-based", "conditions": "dose 6.25-50 nM"}, "MCF7 [4]": {"test_system": "MCF7", "test": "Induction of cell cycle arrest in human MCF7 cells assessed as proportion of cells at G2 phase at 6.25 nM incubated for 24 hrs by PI staining based flow cytometry (reference value: 14.4%)", "type": "functional"}, "HT-29": {"test_system": "HT-29", "test": "Antiproliferative activity against human HT-29 cells assessed as inhibition of cell growth incubated for 48 hrs by MTT assay", "type": "functional, cell-based", "conditions": "HT-29, 48 h"}, "MCF7 [5]": {"test_system": "MCF7", "test": "Induction of cell cycle arrest in human MCF7 cells assessed as proportion of cells at G1 phase at 12.5 nM incubated for 24 hrs by PI staining based flow cytometry (reference value: 64.5%)", "type": "functional"}, "MDA-MB-231": {"test_system": "MDA-MB-231", "test": "Antiproliferative activity against human MDA-MB-231 cells assessed as inhibition of cell growth incubated for 48 hrs by MTT assay", "type": "functional, cell-based", "conditions": "MDA-MB-231, 48 h"}, "Tubulin (Homo sapiens) [6]": {"molecular_target": "T1, Tubulin (Homo sapiens) (UniProt P68371+Q9H4B7+P0DPH7+P68366+Q13509+Q71U36+P04350+Q3ZCM7+P07437+P68363+Q9BQE3+Q6PEY2+Q13885+Q9BVA1+Q9BUF5)", "test": "Displacement of [3H]colchicine from tubulin (unknown origin) at 5 uM incubated for 2 hrs by scinitillation proximity assay", "type": "protein-complex assay"}, "HeLa": {"test_system": "HeLa", "test": "Antiproliferative activity against human HeLa cells assessed as inhibition of cell growth incubated for 48 hrs by MTT assay", "type": "functional, cell-based"}, "MCF7 [7]": {"test_system": "MCF7", "test": "Induction of cell cycle arrest in human MCF7 cells assessed as proportion of cells at G1 phase at 25 nM incubated for 12 hrs by PI staining based flow cytometry (reference value: 64.5%)", "type": "functional"}, "A549 [8]": {"test_system": "A549", "test": "Inhibition of cell migration in human A549 cells at 2.5 to 10 nM incubated for 12 to 48 hrs by fluorescent inverted microscopy", "type": "functional, cell-based", "conditions": "dose 2.5-10 nM, time 12-48 hrs"}, "MCF7 [9]": {"test_system": "MCF7", "test": "Antitumor activity against human MCF7 cells xenografted in BALB/c mouse assessed as inhibition of tumor growth by measuring decrease in tumor weight at 20 mg/kg, ip administered every 3 days for 21 days", "type": "functional", "conditions": "MCF7, 504 h, time 21 day, read-out: TGI"}, "A549 [10]": {"test_system": "A549", "test": "Antiproliferative activity against human A549 cells assessed as inhibition of cell growth incubated for 48 hrs by MTT assay", "type": "functional, cell-based", "conditions": "A549, 48 h"}, "MCF7 [11]": {"test_system": "MCF7", "test": "Induction of apoptosis in human MCF7 cells at 12.5 to 50 nM incubated for 24 hrs by AnnexinV-FITC/PI staining based flow cytometry", "type": "functional, cell-based", "conditions": "dose 12.5-50 nM"}, "HUVEC [12]": {"test_system": "HUVEC", "test": "Anti-vascular activity in human HUVEC cells assessed as reduction in number of loops formed at 6.25 to 50 nM incubated for 6 hrs by Matrigel based inverted fluorescence microscopy", "type": "functional, cell-based", "conditions": "dose 6.25-50 nM"}, "MCF7 [13]": {"test_system": "MCF7", "test": "Antiproliferative activity against human MCF7 cells assessed as inhibition of cell growth incubated for 48 hrs by MTT assay", "type": "functional, cell-based", "conditions": "MCF7, 48 h"}, "MCF7 [14]": {"test_system": "MCF7", "test": "Induction of cell cycle arrest in human MCF7 cells assessed as proportion of cells at S phase at 6.25 nM incubated for 24 hrs by PI staining based flow cytometry (reference value: 21.1%)", "type": "functional"}, "MCF7 [15]": {"test_system": "MCF7", "test": "Inhibition of colony formation in human MCF7 cells at 5 to 20 nM incubated for 2 weeks in 5% CO2 at 37 degC by crystal violet staining based analysis", "type": "functional, cell-based", "conditions": "dose 5-20 nM"}, "MCF7 [16]": {"test_system": "MCF7", "test": "Induction of apoptosis in human MCF7 cells assessed as increase in cleaved caspase-3 protein expression at 6.25 to 50 nM incubated for 24 hrs by western blot analysis", "type": "functional, cell-based", "conditions": "dose 6.25-50 nM"}, "MCF7 [17]": {"test_system": "MCF7", "test": "Induction of apoptosis in human MCF7 cells at 50 nM incubated for 12 to 48 hrs by AnnexinV-FITC/PI staining based flow cytometry", "type": "functional, cell-based", "conditions": "time 12-48 hrs, TDE = time-dependent effect"}, "MCF7 [18]": {"test_system": "MCF7", "test": "Antitumor activity against human MCF7 cells xenografted in BALB/c mouse assessed as inhibition of tumor growth by measuring decrease in tumor weight at 10 mg/kg, ip administered every 3 days for 21 days", "type": "functional", "conditions": "MCF7, 504 h, time 21 day, read-out: TGI"}, "MCF7 [19]": {"test_system": "MCF7", "test": "Induction of apoptosis in human MCF7 cells assessed as increase in cleaved PARP protein expression at 6.25 to 50 nM incubated for 24 hrs by western blot analysis", "type": "functional, cell-based", "conditions": "dose 6.25-50 nM"}, "HUVEC [20]": {"test_system": "HUVEC", "test": "Anti-vascular activity in human HUVEC cells assessed as reduction in length of capillary-like tubules incubated for 6 hrs by Matrigel based inverted fluorescence microscopy", "type": "functional, cell-based", "conditions": "dose 6.25-50 nM"}, "MCF7 [21]": {"test_system": "MCF7", "test": "Induction of cell cycle arrest in human MCF7 cells assessed as increase in Cdc25c protein expression at 6.25 to 50 nM incubated for 24 hrs by western blot analysis", "type": "functional, cell-based", "conditions": "dose 6.25-50 nM"}, "MCF7 [22]": {"test_system": "MCF7", "test": "Induction of cell cycle arrest in human MCF7 cells assessed as proportion of cells at G1 phase at 6.25 nM incubated for 24 hrs by PI staining based flow cytometry (reference value: 64.5%)", "type": "functional"}, "[23]": {"test": "Cytotoxicity against human L02 cells assessed as inhibition of cell growth incubated for 48 hrs by MTT assay", "type": "toxicity, cell-based"}, "MCF7 [24]": {"test_system": "MCF7", "test": "Induction of cell cycle arrest in human MCF7 cells assessed as proportion of cells at G1 phase at 25 nM incubated for 24 hrs by PI staining based flow cytometry (reference value: 64.5%)", "type": "functional"}, "MCF7 [25]": {"test_system": "MCF7", "test": "Induction of cell cycle arrest in human MCF7 cells assessed as proportion of cells at G2 phase at 25 nM incubated for 24 hrs by PI staining based flow cytometry (reference value: 14.4%)", "type": "functional"}, "Tubulin": {"molecular_target": "Tubulin", "test": "Inhibition of tubulin polymerization (unknown origin) measured for 60 mins by fluorescence based analysis", "type": "protein-complex assay, Homo sapiens"}, "MCF7 [26]": {"test_system": "MCF7", "test": "Induction of cell cycle arrest in human MCF7 cells assessed as proportion of cells at S phase at 25 nM incubated for 24 hrs by PI staining based flow cytometry (reference value: 21.1%)", "type": "functional"}, "MCF7 [27]": {"test_system": "MCF7", "test": "Induction of apoptosis in human MCF7 cells assessed as increase in Bax protein expression at 6.25 to 50 nM incubated for 24 hrs by western blot analysis", "type": "functional, cell-based", "conditions": "dose 6.25-50 nM"}, "MCF7 [28]": {"test_system": "MCF7", "test": "Induction of cell cycle arrest in human MCF7 cells assessed as proportion of cells at G2 phase at 12.5 nM incubated for 24 hrs by PI staining based flow cytometry (reference value: 14.4%)", "type": "functional"}, "Tubulin (Homo sapiens) [29]": {"molecular_target": "T1, Tubulin (Homo sapiens)", "test": "Inhibition of tubulin polymerization in human MCF7 cells assessed as disruption of microtubule network into punctate at 25 to 200 nM incubated for 8 hrs by DAPI staining based immunofluorescence assay", "type": "cell-based", "conditions": "dose 25-200 nM"}, "MCF7 [30]": {"test_system": "MCF7", "test": "Induction of cell cycle arrest in human MCF7 cells assessed as proportion of cells at G2 phase at 25 nM incubated for 12 hrs by PI staining based flow cytometry (reference value: 14.4%)", "type": "functional"}},
  "note": "Activity calls are given as the source filed them. No cut-off for these calls is given here.",
  "data": [
    {"smiles": "COc1cc(C(=O)n2nc(N)cc2-c2ccc(C)cc2)cc(OC)c1OC", "values": [
      {"measurement": "Activity", "setting": "MCF7 [1]", "result": 15.7, "unit": "%"},
      {"measurement": "Activity", "setting": "MCF7 [2]", "result": 22, "unit": "%"},
      {"measurement": "Activity", "setting": "MCF7 [3]", "result": "Active"},
      {"measurement": "Activity", "setting": "MCF7 [4]", "result": 28.3, "unit": "%"},
      {"measurement": "IC50", "setting": "HT-29", "result": 60, "unit": "nM"},
      {"measurement": "Activity", "setting": "MCF7 [5]", "result": 45.1, "unit": "%"},
      {"measurement": "IC50", "setting": "MDA-MB-231", "result": 40, "unit": "nM"},
      {"measurement": "inhibition", "setting": "Tubulin (Homo sapiens) [6]", "result": 91.4, "unit": "%"},
      {"measurement": "IC50", "setting": "HeLa", "result": 110, "unit": "nM"},
      {"measurement": "Activity", "setting": "MCF7 [7]", "result": 14.3, "unit": "%"},
      {"measurement": "inhibition", "setting": "A549 [8]", "result": "Dose-Dependent Effect"},
      {"measurement": "inhibition in vivo at 20 mg/kg", "setting": "MCF7 [9]", "result": 69, "unit": "%"},
      {"measurement": "IC50", "setting": "A549 [10]", "result": 390, "unit": "nM"},
      {"measurement": "Activity", "setting": "MCF7 [11]", "result": "Dose-Dependent Effect"},
      {"measurement": "Activity", "setting": "HUVEC [12]", "result": "Active"},
      {"measurement": "IC50", "setting": "MCF7 [13]", "result": 40, "unit": "nM"},
      {"measurement": "Activity", "setting": "MCF7 [14]", "result": 18.4, "unit": "%"},
      {"measurement": "inhibition", "setting": "MCF7 [15]", "result": "Active"},
      {"measurement": "Activity", "setting": "MCF7 [16]", "result": "Active"},
      {"measurement": "Activity", "setting": "MCF7 [17]", "result": "Tde"},
      {"measurement": "inhibition in vivo at 10 mg/kg", "setting": "MCF7 [18]", "result": 36.1, "unit": "%"},
      {"measurement": "Activity", "setting": "MCF7 [19]", "result": "Active"},
      {"measurement": "Activity", "setting": "HUVEC [20]", "result": "Dose-Dependent Effect"},
      {"measurement": "Activity", "setting": "MCF7 [21]", "result": "Active"},
      {"measurement": "Activity", "setting": "MCF7 [22]", "result": 53.3, "unit": "%"},
      {"measurement": "IC50 at 48 h", "setting": "[23]", "result": 2730, "unit": "nM"},
      {"measurement": "Activity", "setting": "MCF7 [24]", "result": 7.65, "unit": "%"},
      {"measurement": "Activity", "setting": "MCF7 [25]", "result": 80.2, "unit": "%"},
      {"measurement": "IC50", "setting": "Tubulin", "result": 1870, "unit": "nM"},
      {"measurement": "Activity", "setting": "MCF7 [26]", "result": 10.65, "unit": "%"},
      {"measurement": "Activity", "setting": "MCF7 [27]", "result": "Active"},
      {"measurement": "Activity", "setting": "MCF7 [28]", "result": 39.2, "unit": "%"},
      {"measurement": "inhibition", "setting": "Tubulin (Homo sapiens) [29]", "result": "Active"},
      {"measurement": "Activity", "setting": "MCF7 [30]", "result": 62.8, "unit": "%"}
    ]}
  ]
}
